# Assay results from ChEMBL document CHEMBL3044532, “Integrated control of cotton root rot disease by mixing fungal biocontrol agents and resistance inducers” (2009).
# How the values were obtained:
# Type in all cases: functional
# Gossypium barbadense [1] = assay: Induction of systemic acquired resistance against Fusarium oxysporum AUSB 26325 in Gossypium barbadense seeds assessed as increase of germination under greenhouse condition at 0.05 ml/L after 7 days relative to control
# Gossypium barbadense [2] = assay: Induction of systemic acquired resistance against Pythium debaryanum AUSB 26351 in Gossypium barbadense seeds assessed as increase of germination under greenhouse condition at 0.05 ml/L after 7 days relative to control
# Gossypium barbadense [3] = assay: Induction of systemic acquired resistance against Fusarium oxysporum AUSB 26325 in Gossypium barbadense seeds assessed as reduction of disease index for germination under greenhouse condition at 0.05 ml/L after 7 days relative to infected control; design: scale not given: the % may be the effect or the level left
# Gossypium barbadense [4] = assay: Induction of systemic acquired resistance against Fusarium oxysporum AUSB 26325 in Gossypium barbadense seeds assessed as increase of fresh weight of seedling under greenhouse condition at 0.05 ml/L after 7 days
# Gossypium barbadense [5] = assay: Induction of systemic acquired resistance against Fusarium oxysporum AUSB 26325 in Gossypium barbadense seeds assessed as increase of dry weight of seedling under greenhouse condition at 0.05 ml/L after 7 days
# Gossypium barbadense [6] = assay: Induction of systemic acquired resistance against Pythium debaryanum AUSB 26351 in Gossypium barbadense seeds assessed as reduction of disease index for germination under greenhouse condition at 0.05 ml/L after 7 days relative to infected control; design: scale not given: the % may be the effect or the level left
# Gossypium barbadense [7] = assay: Induction of systemic acquired resistance against Pythium debaryanum AUSB 26351 in Gossypium barbadense seeds assessed as increase of dry weight of seedling under greenhouse condition at 0.05 ml/L after 7 days
# Gossypium barbadense [8] = assay: Induction of systemic acquired resistance against Pythium debaryanum AUSB 26351 in Gossypium barbadense seeds assessed as increase of fresh weight of seedling under greenhouse condition at 0.05 ml/L after 7 days
smiles,measurement,setting,value
CSC(=O)c1cccc2nnsc12 [ACIBENZOLAR-S-METHYL],Activity,Gossypium barbadense [1],40.7%
same,Activity,Gossypium barbadense [2],40%
same,Activity,Gossypium barbadense [3],45.3%
same,Activity,Gossypium barbadense [4],8.3 g
same,Activity,Gossypium barbadense [5],0.9 g
same,Activity,Gossypium barbadense [6],60%
same,Activity,Gossypium barbadense [7],0.2 g
same,Activity,Gossypium barbadense [8],2 g
